Source: US20190336496A1, “SELECTIVE BCL-2 INHIBITORS IN COMBINATION WITH AN ANTI-PD-1 OR AN ANTI-PD-L1 ANTIBODY FOR THE TREATMENT OF CANCERS” (AbbVie Inc., priority 2018, published 2019)

How the values were obtained:
Experiment in all cases: Venetoclax cell killing (CellTiter-Glo)
Format in all cases: cell-based
[1] = tested on: A431; settings: Homo sapiens, A-431, 120 h; Epidermoid carcinoma (skin); 10% FBS; 5 days
Procedure: (§1) Solid tumor cell lines were obtained from American Type Culture Collection (ATCC, Manassas, Va.) or the National Cancer Institute (NCI) and cultured in humidified incubators at 37° C. (5% CO2) in appropriate media (specified by supplier) supplemented with 10% fetal bovine serum (FBS) or 10% human serum (HS). 24 hours after plating into 96-well or 384-well tissue culture plates, venetoclax was added to cells at various concentrations (typically 0.010 to 10 μM in half-log increments) to perform concentration-response assessments of cell killing. After 1 to 5 days of culture in the presence of venetoclax, cell viability was assessed using CellTiter-Glo® reagent (Promega). IC50 values were determined by non-linear regression analysis of the concentration response data (Table 5 and Table 6).

[2] = tested on: SW948; settings: Homo sapiens, SW948, 120 h; Colorectal; 10% FBS; 5 days
Procedure: as §1

[3] = tested on: COLO-205; settings: Homo sapiens, COLO 205, 120 h; Colorectal; 10% FBS; 5 days
Procedure: as §1

[4] = tested on: Calu-1; settings: Homo sapiens, Calu-1, 72 h; Lung; 10% FBS; 3 days
Procedure: as §1

[5] = tested on: NCI-H508; settings: Homo sapiens, NCI-H508, 72 h; Colorectal; 10% FBS; 3 days
Procedure: as §1

[6] = tested on: SW620; settings: Homo sapiens, SW-620, 120 h; Colorectal; 10% FBS; 5 days
Procedure: as §1

[7] = tested on: NCI-H2009; settings: Homo sapiens, NCI-H2009, 72 h; Lung; 10% FBS; 3 days
Procedure: as §1

[8] = tested on: NCI-H661; settings: Homo sapiens, NCI-H661, 72 h; Lung; 10% FBS; 3 days
Procedure: as §1

[9] = tested on: NCI-H522; settings: Homo sapiens, NCI-H522, 72 h; Lung; 10% FBS; 3 days
Procedure: as §1

[10] = tested on: DLD-1; settings: Homo sapiens, DLD-1, 120 h; Colorectal; 10% FBS; 5 days
Procedure: as §1

[11] = tested on: WM-115; settings: Homo sapiens, WM-115, 120 h; Melanoma; 10% FBS; 5 days
Procedure: as §1

[12] = tested on: NCI-H69; settings: Homo sapiens, NCI-H69, 24 h; Lung; 10% FBS; 1 day
Procedure: as §1

[13] = tested on: A549; settings: Homo sapiens, A549, 72 h; Lung; 10% FBS; 3 days
Procedure: as §1

[14] = tested on: FaDu; settings: Homo sapiens, 120 h, Hypopharyngeal, 10% FBS, 5 days
Procedure: as §1

[15] = tested on: LoVo; settings: Homo sapiens, 120 h, Colorectal, 10% FBS, 5 days
Procedure: as §1

[16] = tested on: HT29; settings: Homo sapiens, HT-29, 120 h; Colorectal; 10% FBS; 5 days
Procedure: as §1

[17] = tested on: NCI-H460; settings: Homo sapiens, NCI-H460, 72 h; Lung; 10% FBS; 3 days
Procedure: as §1

[18] = tested on: SW480; settings: Homo sapiens, SW480, 120 h; Colorectal; 10% FBS; 5 days
Procedure: as §1

[19] = tested on: NCI-H1417; settings: Homo sapiens, NCI-H1417, 48 h; Lung; 10% HS; 2 days
Procedure: as §1

[20] = tested on: DU4475; settings: Homo sapiens, DU-4475, 120 h; Breast Cancer; 10% FBS; 5 days
Procedure: as §1

[21] = tested on: COLO-668; settings: Homo sapiens, COLO-668, 120 h; Colorectal; 10% FBS; 5 days
Procedure: as §1

[22] = tested on: LS411N; settings: Homo sapiens, LS-411N, 120 h; Colorectal; 10% FBS; 5 days
Procedure: as §1

[23] = tested on: NCI-H441; settings: Homo sapiens, NCI-H441, 72 h; Lung; 10% FBS; 3 days
Procedure: as §1

[24] = tested on: COLO-320DM; settings: Homo sapiens, 120 h, Colorectal, 10% FBS, 5 days
Procedure: as §1

[25] = tested on: NCI-H510A; settings: Homo sapiens, 24 h, Lung, 10% FBS, 1 day
Procedure: as §1

[26] = tested on: NCI-H1836; settings: Homo sapiens, NCI-H1836, 48 h; Lung; 10% HS; 2 days
Procedure: as §1

[27] = tested on: SJSA-1; settings: Homo sapiens, SJSA-1, 120 h; Osteosarcoma; 10% FBS; 5 days
Procedure: as §1

[28] = tested on: NCI-H1963; settings: Homo sapiens, NCI-H1963, 24 h; Lung; 10% FBS; 1 day
Procedure: as §1

[29] = tested on: NCI-H526; settings: Homo sapiens, NCI-H526, 24 h; Lung; 10% FBS; 1 day
Procedure: as §1

[30] = tested on: 22Rv1; settings: Homo sapiens, 22Rv1, 48 h; Prostate; 10% FBS; 2 days
Procedure: as §1

[31] = tested on: Calu-6; settings: Homo sapiens, Calu-6, 72 h; Lung; 10% FBS; 3 days
Procedure: as §1

Compound: CC1(C)CCC(CN2CCN(c3ccc(C(=O)NS(=O)(=O)c4ccc(NCC5CCOCC5)c([N+](=O)[O-])c4)c(Oc4cnc5[nH]ccc5c4)c3)CC2)=C(c2ccc(Cl)cc2)C1 [Compound (I), venetoclax]
- IC50 [1]: 4.35 µM
- IC50 [2]: > 10 µM
- IC50 [3]: > 10 µM
- IC50 [4]: > 10 µM
- IC50 [5]: 4.45 µM
- IC50 [6]: > 10 µM
- IC50 [7]: 4.11 µM
- IC50 [8]: > 10 µM
- IC50 [9]: > 10 µM
- IC50 [10]: > 10 µM
- IC50 [11]: 4.96 µM
- IC50 [12]: > 10 µM
- IC50 [13]: 3.19 µM
- IC50 [14]: > 10 µM
- IC50 [15]: > 10 µM
- IC50 [16]: > 10 µM
- IC50 [17]: > 10 µM
- IC50 [18]: > 10 µM
- IC50 [19]: > 5 µM
- IC50 [20]: > 10 µM
- IC50 [21]: > 10 µM
- IC50 [22]: 5.1 µM
- IC50 [23]: > 10 µM
- IC50 [24]: > 10 µM
- IC50 [25]: 1.97 µM
- IC50 [26]: > 5 µM
- IC50 [27]: > 10 µM
- IC50 [28]: 4.59 µM
- IC50 [29]: > 10 µM
- IC50 [30]: > 10 µM
- IC50 [31]: > 10 µM
